We go through 8 compounds from article PMC11475408, “All‐Inorganic Polyoxometalates Act as Superchaotropic Membrane Carriers” (Advanced Materials (Deerfield Beach, Fla.), 2023).

pEC50: −log10 of the molar value. Read-outs that look alike come from different tables or passages of the source.

The test system of one series is CHO‐K1 cells. As to the kind of experiment: FITC-Arg8 uptake in live cells, confocal imaging. The format is cell-based, Chinese hamster. To be noted: 30 min, 37 °C; for FITC-Arg8 uptake promoted by carrier: carrier 5 µM, 5 min, then FITC-Arg8 5 µM, four biological replicates. On the procedure:
CHO‐K1 cells were plated into µ‐Slide 8‐well plates (ibidi) at a density of ≈1 × 10^5 cells per well (per 1 mL) and incubated for 24 h in Ham's F‐12 medium containing 10% v/v fetal bovine serum and 1.0% penicillin streptomycin at 37 °C in a 5% CO2 atmosphere. The cells were washed twice with Hank's buffer, incubated for 5 min at 37 °C in Ham's F‐12 medium without phenol red with carrier (5 µM), and subsequently in Ham's F‐12 medium without phenol red with 5 µM FITC‐Arg8 for 30 min at 37 °C. Cells in the absence of carrier were used as control. The cells were washed twice with Hank's buffer containing 100 µg mL^−1 heparin and then washed twice with Ham's F‐12 medium without phenol red. The nuclear staining was performed by incubating the cells with 10 µg mL^−1 Hoechst 33 342 (bis‐benzimide H33342 trihydrochloride) for 10 min at 37 °C. Cells were directly imaged as stated above.

The nature of series [1]: Hydrolysis/stability of POMs in buffer by NMR. The note with it: for Hydrolysis/stability pH 7.5: 10 mM Hepes or Tris, pH 7.4; for Hydrolysis/stability pH 7.5 / Hydrolysis/stability pH 5.5: 107 mM NaCl, NMR, long-term (24 h and longer); for Hydrolysis/stability pH 5.5: 10 mM Mes; for Stability at pH 7.5 by NMR (in words): Hepes or Tris-HCl pH 7.5, 27Al, 31P or 183W NMR, fresh and aged 1-3 days.
Procedure: First, their long‐term (24 h and longer) fate in aqueous solution (slightly acidic and neutral) was investigated by applying the active NMR nuclei in their composition (Table S9 and Figures S24–S37, see the Supporting Information for details).
NMR-spectroscopic characterization of identity and stability
NMR spectroscopy for all POMs tested was performed under experimental conditions.

The nature of series [2]: CF transport assay in EYPC⊃CF vesicles (carrier activity). The format is biochemical. More on the design: key to Carrier activity: ‐ – ‐: No detectable activity at pH 5.5 and 7.4. To be noted: for pEC50: 5% error (SD); for Carrier activity: EYPC vesicles, pH 5.5 and 7.4, cargos heptaArg, protamine, polyArg ([AlMo6]: heptaArg and protamine only); for Transport activity (in words): EYPC⊃CF vesicles, neutral pH, carrier then cargo. From the text: The capability of POMs to act as membrane carriers was explored first in large unilamellar vesicles (LUVs) loaded with carboxyfluorescein (CF).^[ [54], [55] ^] We selected […] representative cationic peptides, heptaarginine (heptaArg), heptalysine (heptaLys), protamine, and polyarginine (polyArg), as test cargos. Inside the LUVs, the CF dye was encapsulated at self‐quenching concentrations. With a suitable carrier, heptaArg can be taken up into the vesicles, bind with entrapped CF, and shuttle back to the exterior, diluting the previously quenched CF, and thereby restoring its fluorescence (Figure 1c). In the time‐resolved fluorescence experiments (Figure 2a), to test whether a particular POM acts as molecular carrier, the CF emission was continuously monitored during the addition of the inorganic carrier (t = 60 s) and after injection of the impermeable selected cargo (t = 120 s). Toward the end of the experiment (t = 600 s), the surfactant Triton X‐100 was added to release all the entrapped CF and allow normalization of the intensity data.
A thin lipid film was prepared by evaporating a lipid solution of EYPC (egg yolk phosphatidylcholine, 25 mg) in CHCl3 (1 mL) with a stream of nitrogen and then dried in vacuo overnight. The dry film was rehydrated with 1 mL buffer (50 mM CF, 10 mM Hepes, pH 7.4 or 50 mM CF, 10 mM Tris, pH 7.4) for 30 min at room temperature, subjected to freeze–thaw cycles (7 times) and extrusions (15 times) through a polycarbonate membrane (pore size 100 nm). Extravesicular components were removed by size exclusion chromatography (NAP‐25 column Sephadex G‐25 DNA grade) with 10 mM Hepes, 107 mM NaCl, pH 7.4, or 10 mM Hepes, 107 mM NaCl, pH 7.4. Phospholipid concentration was calculated by the Stewart assay.^[ [81] ^]
Acidic vesicles were prepared analogously but the rehydration and elution buffer were 50 mM CF, 10 mM Mes, pH 5.5 and 10 mM Mes, 107 mM NaCl, pH 5.5. respectively.
Vesicles stock solutions (5–10 µL) were diluted with the corresponding buffer in a disposable plastic cuvette and gently stirred (total volume 2000 µL, final lipid concentration 13 µM). Carboxyfluorescein fluorescence was monitored at λ em = 517 nm (λ ex = 492 nm) as a function of time after addition of POMs at 60 s, analyte at 120 s and Triton X‐100 (24 µL 1.2% wt/vol) at 600 s to lyse the vesicles, for calibration. Fluorescence intensities were normalized to fractional emission as (1) It=It−I0/I∞−I0 where I 0 = I t before POM addition and […] after lysis. For Hill analysis, I t before lysis was defined as transport activity, Y, and plotted against POM concentration, c, and fitted to the Hill Equation (2), to afford the activity in absence of POM, Y 0, the maximal activity, Y max, the concentration needed to achieve 50% of maximal activity, EC 50, and the Hill coefficient, n (2) Y=Y0+Ymax−Y0/1+EC50/c^n
In the transport measurements, where different carriers (POMs) are tested with the same cargo, the activator efficiency (E) is determined by their capacity to transport the impermeable cargo to the intravesicular region and is characterized by Y max, its maximal activity, and EC 50, the effective activator concentration. An ideal carrier reaches high Y max at low EC 50. To count both factors, the activator efficiency is defined as (3) E=YmaxpEC50/f were pEC 50 is the negative logarithm of the EC 50, and f a scaling factor, which was set to 20.6 to calibrate the highest (previously known) activation efficiency, E, as 10.^[ [55] ^]

The subject of series [3] is methicillin-resistant Staphylococcus aureus (SR3605, ATCC43300). The note with it: in combination with β-Lactamase, Mueller-Hinton broth, pH 7.4, 34 °C, cited from earlier work. The text has this: page 4: 2. Literature survey Table S1. Survey of experimentally proven membrane penetration of POMs according to a search in Scopus (“polyoxometalate” and “membrane penetration”) up to the submission date of the manuscript.

A short description of series [4]: Membrane disruption of liposomes by POM alone (CF fluorescence, DLS). The note with it: higher than 100 µM POM, 10 mM Tris, 107 mM NaCl, pH 7.4. The format is biochemical. On the procedure:
It should be noted that the addition of POMs alone (without cargo) retained the stability of the liposomes in the studied concentration range (up to 100 µM), that is, neither an increase in CF fluorescence nor changes in size distribution as obtained by dynamic light scattering experiments (DLS, see Figure S4, Supporting Information) were observed, which would have signaled membrane rupture. These negative controls allowed us to proceed to the carrier experiments, with added cargo.
DLS experiments of the vesicles were carried out on a Malvern Instruments DTS Nano 2000 Zeta‐Sizer. A POM concentration of 100 µM was chosen as default, since this is the highest concentration at which membrane transport was evaluated. The cargo concentration was set to be same as in the transport experiments, namely 10 µM for heptaarginine, 1 µM for protamine, and 0.1 µM for polyarginine. Note that the POMs themselves, with a size of ≈1 nm, fall below the detection limit (>10 nm) of the DLS instrument.
Figure S3. Transport activity, Y, for polyarginine (0.1 µM) in EYPC[…]CF liposomes as a function of the concentration of the different evaluated POMs. Solid lines correspond to the resulting fit with the Hill equation. Blue squares are data obtained at neutral pH, and red stars data obtained at acidic pH.
Table S4. Membrane transport parametersa) of active POMs at neutralb) and acidicc) pH.
HeptaArgd) Protaminee) PolyArgf) carrier pH Hydrolysis/Stability
Ymax [%]g) EC50h) [µM] E i) Ymax [%] EC50 [µM] E Ymax [%] EC50 [µM] E […]
Figure S5. Transport kinetics (left pannels), dose response curves (middle pannels) for cargo transport, and size distribution (by DLS, right pannels) for [PW12]3‒ (top) and [SiW12]4‒ (bottom), measured with EYPC[…]CF liposomes at pH 7.4, but preserving the POM solution at pH 1.2 before addition. As shown in panel a, the addition of [PW12]3‒ alone gave a fluorescence increase, pointing to membrane disruption, which was confirmed by DLS (panel c). […]

[5] abbreviates: CF assay, EYPC LUVs, 0.1 µM polyArg, pH 7.4, read-out: PolyArg EC 50.
Where [6] appears, read: CF assay, EYPC LUVs, 0.1 µM polyArg, pH 7.4, ±2% error (SD).
[7] abbreviates: EYPC LUVs, 0.1 µM polyArg, pH 7.4, f = 20.6, 10% error.

Turning to “5(6)‐fluorescein isothiocyanate‐labelled octaarginine [FITC‐Arg8]”, the “Uptake of FITC-Arg8 without carrier” value in the series on CHO‐K1 cells (FITC-Arg8 5 µM) was “minor punctate fluorescence”.
Regarding `O=C(O)CCCc1ccc2ccc3cccc4ccc1c2c34` [PyBu^‒, pyrenebutyrate, reference compound], the “Hydrolysis/stability pH 7.5” value in series [1] was “Stable”. Besides, the “Hydrolysis/stability pH 5.5” value in series [1] is listed as “Stable”. The “HeptaArg Y max” value in series [2] (CF assay, EYPC LUVs, 13 µM lipid, 10 µM heptaArg, 10 mM Hepes or Tris, 107 mM NaCl, pH 7.4, 10 min, Hill fit, triplicates, ±2% error (SD)) was 100%. Also, the pEC50 in series [2] (setting [5]) is 4.92; in series [2] (CF assay, EYPC LUVs, 1 µM protamine, pH 7.4, read-out: Protamine EC 50), 4.41; in series [2] (CF assay, EYPC LUVs, 10 µM heptaArg, pH 7.4, carrier concentration for 50% of Ymax, read-out: HeptaArg EC 50), 4.00. Also, the “PolyArg Y max” value in series [2] (setting [6]) came to 91%. In addition, the “Protamine Y max” value in series [2] (CF assay, EYPC LUVs, 1 µM protamine, pH 7.4, ±2% error (SD)) is listed as 77%. Moreover, the “PolyArg E (activation efficiency)” value in series [2] (setting [7]) amounted to 8.5. Further, the “Protamine E (activation efficiency)” value in series [2] (EYPC LUVs, 1 µM protamine, pH 7.4, f = 20.6, 10% error) amounted to 5.3. In addition, the “HeptaArg E (activation efficiency)” value in series [2] (EYPC LUVs, 10 µM heptaArg, pH 7.4, E = Ymax(pEC50/f), f = 20.6, 10% error) is reported as 4.8. For the same compound, the “Efficacy when the sequence of addition was inverted” value in series [2] (heptaarginine 10 µM, cargo before carrier (Figure S6)) is recorded as “significantly reduces its activity”. In addition, the “FITC-Arg8 uptake promoted by carrier” value in the series on CHO‐K1 cells is given as “did not achieve efficient uptake”.
In the case of `Cc1onc(-c2ccccc2)c1C(=O)N[C@@H]1C(=O)N2[C@@H]1SC(C)(C)[C@@H]2C(=O)O` [oxacillin], the minimum inhibitory concentration (MIC) in series [3] (ref [8]) and in series [3] (ref [9]) was 256 µg/mL throughout.
Regarding “(C4H12N)4[α‐HAl^IIIGe^IVW^VI 11O39(H2O)]·11H2O [[AlGeW11]^5‒]”, in series [1], the “Hydrolysis/stability pH 7.5” value is recorded as “Stable” and the “Stability at pH 7.5 by NMR (in words)” value is given as “integrity at pH 7.5”. Also, in series [2], the “Carrier activity” value is listed as “‐ – ‐ ^k)”.
For B12Br12 ^2‒ [reference compound], in series [1], the “Hydrolysis/stability pH 7.5” value was “Stable” and the “Hydrolysis/stability pH 5.5” value was “Stable”. Moreover, the “FITC-Arg8 uptake promoted by carrier” value with CHO‐K1 cells was “did not achieve efficient uptake”.
Consider “K4[α‐Si^IVW^VI 12O40]·14H2O [[SiW12]^4‒]”, for which the “Vesicle lysis at higher concentrations” value in series [4] is on record as “led to vesicle lysis”. Moreover, in series [1], the “Stability at pH 7.5 by NMR (in words)” value was “[SiIVWVI11O39]8‒ is predominant”. Besides, in series [2], the “Carrier activity” value is reported as “‐ – ‐ ^k) , ^m)” and the “Transport activity (in words)” value is on record as “neither an interaction with the membrane nor cargo transport”. For the same compound, in series [2] (EYPC⊃CF liposomes at pH 7.4, POM solution preserved at pH 1.2 before addition), the “Cargo transport with POM solution kept at pH 1.2” value is listed as “showed the desired cargo transport at acidic pH, without membrane disruption”.
On to “Na3[Al^III(OH)6Mo^VI 6O18]·2H2O [[AlMo6]^3‒]”, for which the “Hydrolysis/stability pH 7.5” value in series [1] was “Stable”. In series [2] (setting [5]), the pEC50 is 4.96. In series [2] (setting [6]), the “PolyArg Y max” value was determined as 33%. In addition, in series [2] (setting [7]), the “PolyArg E (activation efficiency)” value came out at 3.1. Moreover, in series [2], the “Carrier activity” value is recorded as “‐ – ‐ ^k)” and the “Transport activity (in words)” value is given as “incipient transport activity, but only for polyarginine as cargo”.
As to “Na5[α‐Al^IIIW^VI 12O40]·12H2O [[AlW12]^5‒]”, in series [1], the “Hydrolysis/stability pH 7.5” value is “Stable” and the “Stability at pH 7.5 by NMR (in words)” value is reported as “stable at pH 7.5”. In series [2], the “Carrier activity” value is recorded as “‐ – ‐ ^k)”.

Broadly, the MIC is the least concentration at which growth counts as inhibited.
